Experimental data taken from paper PMC7026418, “The kinase polypharmacology landscape of clinical PARP inhibitors” (Scientific Reports, 2020).
Where two headings read alike, the source gives them in different places. One block for each compound: values may come before it.

Assays:
Test in all cases: biochemical
Set-up in all cases: DiscoveRx KINOMEscan active site-directed competition binding; percent of control kinase bound to immobilised ligand
FLT3(D835H) = biological target: T1, FLT3(D835H) (Homo sapiens, UniProt P36888, D835H)
T1 sequence (P36888 1-993 D835H): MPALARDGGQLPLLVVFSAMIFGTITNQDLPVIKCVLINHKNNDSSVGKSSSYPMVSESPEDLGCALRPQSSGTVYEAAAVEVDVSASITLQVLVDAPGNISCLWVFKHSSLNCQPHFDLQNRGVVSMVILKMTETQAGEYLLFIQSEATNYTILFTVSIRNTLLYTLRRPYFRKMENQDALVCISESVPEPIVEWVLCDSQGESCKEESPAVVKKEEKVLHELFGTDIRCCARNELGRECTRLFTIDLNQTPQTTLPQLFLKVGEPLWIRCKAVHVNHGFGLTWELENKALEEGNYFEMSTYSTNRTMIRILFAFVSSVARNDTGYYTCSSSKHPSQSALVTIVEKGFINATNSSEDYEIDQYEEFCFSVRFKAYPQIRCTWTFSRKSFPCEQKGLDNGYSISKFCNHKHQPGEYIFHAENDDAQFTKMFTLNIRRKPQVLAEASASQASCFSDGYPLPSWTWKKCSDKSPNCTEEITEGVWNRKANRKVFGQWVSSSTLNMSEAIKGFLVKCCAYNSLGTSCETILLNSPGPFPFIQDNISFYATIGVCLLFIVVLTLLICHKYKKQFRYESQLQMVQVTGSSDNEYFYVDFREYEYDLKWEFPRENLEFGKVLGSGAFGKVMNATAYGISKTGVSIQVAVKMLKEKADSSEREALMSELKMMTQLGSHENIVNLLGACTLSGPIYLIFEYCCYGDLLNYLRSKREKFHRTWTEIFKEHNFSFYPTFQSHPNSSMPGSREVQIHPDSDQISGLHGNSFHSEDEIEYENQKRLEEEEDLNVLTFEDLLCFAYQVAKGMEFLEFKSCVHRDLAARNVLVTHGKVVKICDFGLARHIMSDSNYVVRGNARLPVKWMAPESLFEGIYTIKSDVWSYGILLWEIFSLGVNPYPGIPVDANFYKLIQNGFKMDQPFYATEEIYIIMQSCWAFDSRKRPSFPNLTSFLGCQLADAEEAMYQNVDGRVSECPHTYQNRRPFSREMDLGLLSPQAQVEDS

HUNK = biological target: T2, HUNK (Homo sapiens, UniProt P57058)
T2 sequence (P57058 1-714): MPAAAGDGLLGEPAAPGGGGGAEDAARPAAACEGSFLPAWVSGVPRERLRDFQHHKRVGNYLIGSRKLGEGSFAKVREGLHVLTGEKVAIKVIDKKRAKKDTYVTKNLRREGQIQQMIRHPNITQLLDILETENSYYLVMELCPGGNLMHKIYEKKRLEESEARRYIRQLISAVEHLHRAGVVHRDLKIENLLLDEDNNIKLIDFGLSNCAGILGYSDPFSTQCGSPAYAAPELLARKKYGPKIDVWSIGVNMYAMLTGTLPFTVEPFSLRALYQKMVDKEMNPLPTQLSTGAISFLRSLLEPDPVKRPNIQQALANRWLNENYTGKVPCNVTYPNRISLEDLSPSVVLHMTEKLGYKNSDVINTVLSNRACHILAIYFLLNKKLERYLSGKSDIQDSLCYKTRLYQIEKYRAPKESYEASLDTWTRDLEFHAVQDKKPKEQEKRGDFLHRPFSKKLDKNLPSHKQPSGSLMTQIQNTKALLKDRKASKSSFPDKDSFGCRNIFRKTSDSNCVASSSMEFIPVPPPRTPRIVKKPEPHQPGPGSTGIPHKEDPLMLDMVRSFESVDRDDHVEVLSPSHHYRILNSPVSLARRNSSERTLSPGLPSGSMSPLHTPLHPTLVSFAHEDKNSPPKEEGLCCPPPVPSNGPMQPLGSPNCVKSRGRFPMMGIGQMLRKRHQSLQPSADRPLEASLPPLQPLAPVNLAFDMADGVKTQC

AURKA = biological target: T3, AURKA (Homo sapiens, UniProt O14965)
T3 sequence (O14965 1-403): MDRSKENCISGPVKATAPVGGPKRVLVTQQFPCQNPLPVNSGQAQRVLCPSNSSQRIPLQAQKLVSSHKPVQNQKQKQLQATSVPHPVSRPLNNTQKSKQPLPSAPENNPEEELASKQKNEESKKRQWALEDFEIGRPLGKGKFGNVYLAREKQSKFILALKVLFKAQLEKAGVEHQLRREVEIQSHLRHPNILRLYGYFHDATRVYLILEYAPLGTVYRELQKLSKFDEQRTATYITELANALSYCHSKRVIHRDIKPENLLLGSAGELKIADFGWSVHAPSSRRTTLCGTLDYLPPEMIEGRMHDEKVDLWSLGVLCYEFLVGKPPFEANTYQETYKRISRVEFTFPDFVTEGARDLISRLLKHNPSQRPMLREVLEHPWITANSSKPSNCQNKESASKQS

PAK2 = PAK2 (Homo sapiens, UniProt Q13177)
Chain of PAK2 (Q13177 whole entry): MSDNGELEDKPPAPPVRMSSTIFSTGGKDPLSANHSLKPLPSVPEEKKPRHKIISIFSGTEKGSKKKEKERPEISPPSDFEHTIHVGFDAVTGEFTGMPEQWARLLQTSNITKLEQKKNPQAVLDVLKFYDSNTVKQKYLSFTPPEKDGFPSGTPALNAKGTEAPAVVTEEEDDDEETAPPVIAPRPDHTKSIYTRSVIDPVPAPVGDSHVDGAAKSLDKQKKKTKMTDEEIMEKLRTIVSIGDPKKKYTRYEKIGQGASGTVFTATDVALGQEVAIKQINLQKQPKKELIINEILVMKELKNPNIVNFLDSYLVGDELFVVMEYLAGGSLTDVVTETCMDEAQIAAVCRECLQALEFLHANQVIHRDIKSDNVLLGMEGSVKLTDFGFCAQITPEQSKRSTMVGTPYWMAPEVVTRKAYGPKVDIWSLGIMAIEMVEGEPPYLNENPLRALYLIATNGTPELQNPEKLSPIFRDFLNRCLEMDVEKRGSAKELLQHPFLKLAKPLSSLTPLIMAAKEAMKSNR

MET = MET (Homo sapiens, UniProt P08581)
Chain of MET (P08581 whole entry): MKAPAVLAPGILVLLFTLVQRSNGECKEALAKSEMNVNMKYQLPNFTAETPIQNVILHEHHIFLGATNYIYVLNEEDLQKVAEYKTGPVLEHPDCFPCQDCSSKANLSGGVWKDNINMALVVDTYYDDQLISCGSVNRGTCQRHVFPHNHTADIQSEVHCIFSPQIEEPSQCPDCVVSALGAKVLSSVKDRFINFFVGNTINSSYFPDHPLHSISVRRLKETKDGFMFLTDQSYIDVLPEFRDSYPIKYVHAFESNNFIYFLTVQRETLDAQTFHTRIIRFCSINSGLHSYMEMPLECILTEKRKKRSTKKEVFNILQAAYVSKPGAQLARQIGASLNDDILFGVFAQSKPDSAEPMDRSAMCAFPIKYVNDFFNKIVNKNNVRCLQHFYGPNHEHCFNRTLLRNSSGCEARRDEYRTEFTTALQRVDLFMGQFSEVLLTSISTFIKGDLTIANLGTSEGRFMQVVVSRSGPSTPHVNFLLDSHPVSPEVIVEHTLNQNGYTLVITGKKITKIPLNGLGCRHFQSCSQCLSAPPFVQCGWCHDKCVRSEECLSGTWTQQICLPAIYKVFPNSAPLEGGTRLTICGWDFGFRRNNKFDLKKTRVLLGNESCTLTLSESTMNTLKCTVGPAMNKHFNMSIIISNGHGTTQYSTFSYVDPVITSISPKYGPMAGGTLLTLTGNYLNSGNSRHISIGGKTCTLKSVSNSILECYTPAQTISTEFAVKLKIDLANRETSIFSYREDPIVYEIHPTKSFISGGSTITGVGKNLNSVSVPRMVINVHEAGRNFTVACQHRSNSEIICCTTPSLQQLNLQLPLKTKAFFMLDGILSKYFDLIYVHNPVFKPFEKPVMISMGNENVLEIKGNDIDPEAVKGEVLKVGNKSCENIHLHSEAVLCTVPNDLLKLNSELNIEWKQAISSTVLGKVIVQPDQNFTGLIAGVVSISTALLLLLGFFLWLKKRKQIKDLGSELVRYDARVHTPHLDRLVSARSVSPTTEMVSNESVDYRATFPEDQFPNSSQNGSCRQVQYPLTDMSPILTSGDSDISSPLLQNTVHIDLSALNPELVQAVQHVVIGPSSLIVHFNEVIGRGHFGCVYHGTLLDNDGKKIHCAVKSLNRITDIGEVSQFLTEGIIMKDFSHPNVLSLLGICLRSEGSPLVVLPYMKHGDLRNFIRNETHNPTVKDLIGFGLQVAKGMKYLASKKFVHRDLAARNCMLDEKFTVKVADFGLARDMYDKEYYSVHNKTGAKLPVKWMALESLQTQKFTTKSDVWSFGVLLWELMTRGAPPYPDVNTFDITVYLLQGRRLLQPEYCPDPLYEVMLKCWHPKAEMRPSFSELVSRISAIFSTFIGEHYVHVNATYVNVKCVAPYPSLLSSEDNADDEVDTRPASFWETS

SIK2 = SIK2 (Homo sapiens, UniProt Q9H0K1)
Chain of SIK2 (Q9H0K1 whole entry): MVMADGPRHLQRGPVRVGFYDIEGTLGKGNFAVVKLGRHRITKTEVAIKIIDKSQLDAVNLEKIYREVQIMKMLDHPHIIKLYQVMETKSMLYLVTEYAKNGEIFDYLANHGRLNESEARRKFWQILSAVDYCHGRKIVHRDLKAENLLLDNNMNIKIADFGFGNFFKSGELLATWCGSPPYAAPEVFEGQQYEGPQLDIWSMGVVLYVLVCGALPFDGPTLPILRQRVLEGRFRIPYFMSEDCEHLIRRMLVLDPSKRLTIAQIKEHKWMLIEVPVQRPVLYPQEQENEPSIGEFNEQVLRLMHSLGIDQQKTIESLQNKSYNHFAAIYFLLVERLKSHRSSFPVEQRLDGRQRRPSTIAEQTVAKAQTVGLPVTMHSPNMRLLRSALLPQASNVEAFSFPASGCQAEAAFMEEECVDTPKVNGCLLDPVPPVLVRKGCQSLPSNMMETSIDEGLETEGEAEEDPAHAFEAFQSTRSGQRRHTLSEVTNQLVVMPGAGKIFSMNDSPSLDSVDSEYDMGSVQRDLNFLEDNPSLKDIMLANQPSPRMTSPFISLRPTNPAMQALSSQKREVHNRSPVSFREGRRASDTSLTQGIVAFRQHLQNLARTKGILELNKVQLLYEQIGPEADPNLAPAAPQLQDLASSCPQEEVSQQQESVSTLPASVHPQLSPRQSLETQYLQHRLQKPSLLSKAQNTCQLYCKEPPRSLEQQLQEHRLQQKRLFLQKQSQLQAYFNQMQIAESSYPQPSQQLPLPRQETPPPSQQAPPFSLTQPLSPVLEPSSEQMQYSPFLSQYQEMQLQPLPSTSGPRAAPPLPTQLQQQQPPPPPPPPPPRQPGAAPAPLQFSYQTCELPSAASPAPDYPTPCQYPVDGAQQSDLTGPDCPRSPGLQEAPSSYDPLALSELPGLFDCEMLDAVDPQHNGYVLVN

NDR2 = biological target: T4, NDR2 (Homo sapiens, UniProt Q9Y2H1)
T4 construct: gene STK38L
T4 sequence (Q9Y2H1 whole entry): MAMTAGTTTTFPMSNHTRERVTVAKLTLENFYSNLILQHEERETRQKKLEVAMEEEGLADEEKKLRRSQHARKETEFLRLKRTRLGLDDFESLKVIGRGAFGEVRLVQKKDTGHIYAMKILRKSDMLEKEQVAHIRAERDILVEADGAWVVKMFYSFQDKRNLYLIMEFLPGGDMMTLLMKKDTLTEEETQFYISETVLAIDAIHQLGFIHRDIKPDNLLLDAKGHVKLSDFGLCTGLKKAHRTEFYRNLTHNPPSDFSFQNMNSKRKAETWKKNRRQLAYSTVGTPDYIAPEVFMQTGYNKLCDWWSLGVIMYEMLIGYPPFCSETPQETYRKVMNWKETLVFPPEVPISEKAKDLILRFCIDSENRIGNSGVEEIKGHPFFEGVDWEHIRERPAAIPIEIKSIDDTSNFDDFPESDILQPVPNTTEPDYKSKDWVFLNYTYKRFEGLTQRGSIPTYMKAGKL

[1] = read-out: Niraparib (MK-4827) / %Ctrl @ 10000nM
[2] = read-out: Rucaparib / %Ctrl @ 10000nM, binding competition, % of control
[3] = read-out: Olaparib / %Ctrl @ 10000nM
[4] = read-out: Talazoparib (BMN 673) / %Ctrl @ 10000nM

Compound: NC(=O)c1cccc2cn(-c3ccc([C@@H]4CCCNC4)cc3)nc12 [Niraparib]
percent of control binding at 10 µM (FLT3(D835H); [1]): 83%
percent of control binding at 10 µM (HUNK; [1]): 98%
percent of control binding at 10 µM (AURKA; [1]): 25%
percent of control binding at 10 µM (PAK2; [1]): 45%
percent of control binding at 10 µM (MET; [1]): 92%
percent of control binding at 10 µM (SIK2; [1]): 91%
percent of control binding at 10 µM (NDR2; [1]): 77%

Rucaparib / %Ctrl @ 10000nM (FLT3(D835H); binding competition, % of control): 42%
percent of control binding at 10 µM (HUNK; [2]): 100%
percent of control binding at 10 µM (AURKA; [2]): 75%
percent of control binding at 10 µM (PAK2; [2]): 31%
percent of control binding at 10 µM (MET; [2]): 92%
percent of control binding at 10 µM (SIK2; [2]): 96%
percent of control binding at 10 µM (NDR2; [2]): 86%
Compound: CNCc1ccc(-c2[nH]c3cc(F)cc4c3c2CCNC4=O)cc1 [Rucaparib]

percent of control binding at 10 µM (FLT3(D835H); [3]): 91%
percent of control binding at 10 µM (HUNK; [3]): 88%
percent of control binding at 10 µM (AURKA; [3]): 91%
percent of control binding at 10 µM (PAK2; [3]): 92%
percent of control binding at 10 µM (MET; [3]): 91%
percent of control binding at 10 µM (SIK2; [3]): 100%
percent of control binding at 10 µM (NDR2; [3]): 97%
Compound: O=C(c1cc(Cc2n[nH]c(=O)c3ccccc23)ccc1F)N1CCN(C(=O)C2CC2)CC1 [Olaparib]

percent of control binding at 10 µM (FLT3(D835H); [4]): 89%
percent of control binding at 10 µM (HUNK; [4]): 100%
percent of control binding at 10 µM (AURKA; [4]): 84%
percent of control binding at 10 µM (PAK2; [4]): 84%
percent of control binding at 10 µM (MET; [4]): 99%
percent of control binding at 10 µM (SIK2; [4]): 100%
percent of control binding at 10 µM (NDR2; [4]): 83%
Compound: Cn1ncnc1[C@H]1c2n[nH]c(=O)c3cc(F)cc(c23)N[C@@H]1c1ccc(F)cc1 [Talazoparib]
